In ChEMBL document CHEMBL3046271, “Design and synthesis of 3-[3-(substituted phenyl)-4-piperidin-1-ylmethyl/-4-morpholin-4-ylmethyl-4,5-dihydro-isoxazol-5-yl]-1H-indoles as potent anti-inflammatory agents” (Med Chem Res, 2010):

How the values were obtained:
Rattus norvegicus [1] = assay: Anti-inflammatory activity in Rattus norvegicus Wistar (rat) assessed as inhibition of carrageenan-induced paw edema at 70 mg/kg, po administered 1 hr prior to carrageenan challenge measured after 3 hr by plethysmometric analysis relative to control; format: functional
Rattus norvegicus [2] = assay: Anti-inflammatory activity in Rattus norvegicus Wistar (rat) assessed as inhibition of carrageenan-induced paw edema at 70 mg/kg, po administered 1 hr prior to carrageenan challenge measured after 4 hr by plethysmometric analysis relative to control; format: functional
Rattus norvegicus [3] = assay: Anti-inflammatory activity in Rattus norvegicus Wistar (rat) assessed as inhibition of carrageenan-induced paw edema at 35 mg/kg, po administered 1 hr prior to carrageenan challenge measured after 3 hr by plethysmometric analysis relative to control; format: functional
Rattus norvegicus [4] = assay: Anti-inflammatory activity in Rattus norvegicus Wistar (rat) assessed as inhibition of carrageenan-induced paw edema at 35 mg/kg, po administered 1 hr prior to carrageenan challenge measured after 4 hr by plethysmometric analysis relative to control; format: functional
Rattus norvegicus [5] = assay: Antioxidant activity in Rattus norvegicus Wistar (rat) assessed as malondialdehyde content in gastric mucosa at 105 mg/kg, po after 17 hr by UV spectrophotometric analysis (reference value: 3.23 +/- 0.05 nmol); format: functional
Rattus norvegicus [6] = assay: Ulcerogenic activity in Rattus norvegicus Wistar (rat) stomach assessed as severity index at 105 mg/kg, po after 17 hr relative to control; format: toxicity, organism-based; set-up: dose 105 mg/kg, route oral; conditions: in vivo
Rattus norvegicus [7] = assay: Ulcerogenic activity in Rattus norvegicus Wistar (rat) stomach assessed as severity index at 210 mg/kg, po after 17 hr relative to control; format: toxicity, organism-based; set-up: dose 210 mg/kg, route oral; conditions: in vivo
Rattus norvegicus [8] = assay: Antioxidant activity in Rattus norvegicus Wistar (rat) assessed as malondialdehyde content in gastric mucosa at 210 mg/kg, po after 17 hr by UV spectrophotometric analysis (reference value: 3.23 +/- 0.05 nmol); format: functional

SMILES | inhibition in vivo at 70 mg/kg (Rattus norvegicus [1]) [%] | inhibition in vivo at 70 mg/kg (Rattus norvegicus [2]) [%] | inhibition in vivo at 35 mg/kg (Rattus norvegicus [3]) [%] | inhibition in vivo at 35 mg/kg (Rattus norvegicus [4]) [%] | Activity (Rattus norvegicus [5]) [nmol] | UI (Rattus norvegicus [6]) | UI (Rattus norvegicus [7]) | Activity (Rattus norvegicus [8]) [nmol]
c1ccc(C2=NOC(c3c[nH]c4ccccc34)C2CN2CCCCC2)cc1 (stereo not given) | 34.3 | 48.5 |  |  |  |  |  | 
c1ccc(C2=NOC(c3c[nH]c4ccccc34)C2CN2CCOCC2)cc1 (stereo not given) | 35.3 | 45.5 |  |  |  |  |  | 
COc1ccc2c(c1)c(CC(=O)O)c(C)n2C(=O)c1ccc(Cl)cc1 [INDOMETHACIN] |  |  | 65.2 | 76.5 | 9.29 | 2.33 |  | 
COc1ccc(C2=NOC(c3c[nH]c4ccccc34)C2CN2CCOCC2)cc1 (stereo not given) | 44.1 | 55.5 |  |  |  |  | 0.25 | 4.16
Cc1ccc(C2=NOC(c3c[nH]c4ccccc34)C2CN2CCCCC2)cc1 (stereo not given) | 41.2 | 51.5 |  |  |  |  | 0.5 | 4.28
Clc1ccc(C2=NOC(c3c[nH]c4ccccc34)C2CN2CCCCC2)cc1 (stereo not given) | 45.1 | 53.5 |  |  |  |  | 0.583 | 4.38
Cc1ccc(C2=NOC(c3c[nH]c4ccccc34)C2CN2CCOCC2)cc1 (stereo not given) | 38.2 | 48.5 |  |  |  |  |  | 
COc1ccc(C2=NOC(c3c[nH]c4ccccc34)C2CN2CCCCC2)cc1 (stereo not given) | 45.1 | 50.5 |  |  |  |  | 0.75 | 4.51
Clc1ccc(C2=NOC(c3c[nH]c4ccccc34)C2CN2CCOCC2)cc1 (stereo not given) | 44.1 | 50.5 |  |  |  |  | 0.75 | 4.39
